Assay: wn = mass fraction of the nth substance listed
Conditions: 100 kPa, Liquid; for speed of sound: Frequency=3 MHz, Sing-around technique in a fixed-path interferometer; for mass density: Vibrating tube method

C1CC[C@H]2CCCC[C@@H]2C1 [trans-decahydronaphthalene] + c1ccc2c(c1)CCCC2
Conditions | mass density [kg/m3] | speed of sound [m/s]
293.15 K, w2 = 0.1003 | 878.7 | 1405
293.15 K, w2 = 0.2002 | 887.89 | 1412.5
293.15 K, w2 = 0.3 | 897.28 | 1420.5
293.15 K, w2 = 0.4002 | 906.9 | 1428.8
293.15 K, w2 = 0.5 | 916.67 | 1437.7
293.15 K, w2 = 0.6 | 926.69 | 1446.9
293.15 K, w2 = 0.7 | 936.89 | 1456.8
293.15 K, w2 = 0.8 | 947.32 | 1467
293.15 K, w2 = 0.8999 | 957.95 | 1477.9
303.15 K, w2 = 0.1003 | 871.18 | 1364.8
303.15 K, w2 = 0.2002 | 880.33 | 1372.4
303.15 K, w2 = 0.3 | 889.67 | 1380.5
303.15 K, w2 = 0.4002 | 899.23 | 1388.9
303.15 K, w2 = 0.5 | 908.96 | 1397.9
303.15 K, w2 = 0.6 | 918.92 | 1407.2
303.15 K, w2 = 0.7 | 929.09 | 1417.2
303.15 K, w2 = 0.8 | 939.47 | 1427.6
303.15 K, w2 = 0.8999 | 950.07 | 1438.6
313.15 K, w2 = 0.1003 | 863.68 | 1325.3
313.15 K, w2 = 0.2002 | 872.76 | 1333.1
313.15 K, w2 = 0.3 | 882.05 | 1341.3
313.15 K, w2 = 0.4002 | 891.55 | 1349.9
313.15 K, w2 = 0.5 | 901.24 | 1358.9
313.15 K, w2 = 0.6 | 911.15 | 1368.4
313.15 K, w2 = 0.7 | 921.27 | 1378.4
313.15 K, w2 = 0.8 | 931.61 | 1388.9
313.15 K, w2 = 0.8999 | 942.17 | 1400
323.15 K, w2 = 0.1003 | 856.15 | 1286.7
323.15 K, w2 = 0.2002 | 865.18 | 1294.5
323.15 K, w2 = 0.3 | 874.42 | 1302.8
323.15 K, w2 = 0.4002 | 883.87 | 1311.5
323.15 K, w2 = 0.5 | 893.51 | 1320.7
323.15 K, w2 = 0.6 | 903.37 | 1330.2
323.15 K, w2 = 0.7 | 913.45 | 1340.4
323.15 K, w2 = 0.8 | 923.75 | 1350.9
323.15 K, w2 = 0.8999 | 934.26 | 1362
333.15 K, w2 = 0.1003 | 848.6 | 1248.7
333.15 K, w2 = 0.2002 | 857.58 | 1256.7
333.15 K, w2 = 0.3 | 866.77 | 1265.1
333.15 K, w2 = 0.4002 | 876.17 | 1273.9
333.15 K, w2 = 0.5 | 885.76 | 1283.1
333.15 K, w2 = 0.6 | 895.58 | 1292.7
333.15 K, w2 = 0.7 | 905.62 | 1303
333.15 K, w2 = 0.8 | 915.87 | 1313.5
333.15 K, w2 = 0.8999 | 926.34 | 1324.8
343.15 K, w2 = 0.1003 | 841 | –
343.15 K, w2 = 0.2002 | 850 | –
343.15 K, w2 = 0.3 | 859.1 | –
343.15 K, w2 = 0.4002 | 868.3 | –
343.15 K, w2 = 0.5 | 878 | –
343.15 K, w2 = 0.6 | 887.9 | –
343.15 K, w2 = 0.7 | 897.7 | –
343.15 K, w2 = 0.8 | 907.9 | –
343.15 K, w2 = 0.8999 | 918.5 | –
353.1 K, w2 = 0.1003 | 833.2 | –
353.1 K, w2 = 0.2002 | 842.3 | –
353.1 K, w2 = 0.3 | 851.4 | –
353.1 K, w2 = 0.4002 | 860.6 | –
353.1 K, w2 = 0.5 | 870.2 | –
353.1 K, w2 = 0.6 | 880 | –
353.1 K, w2 = 0.7 | 889.8 | –
353.1 K, w2 = 0.8 | 900 | –
353.1 K, w2 = 0.8999 | 910.5 | –
363.1 K, w2 = 0.1003 | 825.5 | –
363.1 K, w2 = 0.2002 | 834.6 | –
363.1 K, w2 = 0.3 | 843.5 | –
363.1 K, w2 = 0.4002 | 852.8 | –
363.1 K, w2 = 0.5 | 862.3 | –
363.1 K, w2 = 0.6 | 872.1 | –
363.1 K, w2 = 0.7 | 881.8 | –
363.1 K, w2 = 0.8 | 892 | –
363.1 K, w2 = 0.8999 | 902.4 | –
373.1 K, w2 = 0.1003 | 817.9 | –
373.1 K, w2 = 0.2002 | 826.9 | –
373.1 K, w2 = 0.3 | 835.8 | –
373.1 K, w2 = 0.4002 | 844.9 | –
373.1 K, w2 = 0.5 | 854.5 | –
373.1 K, w2 = 0.6 | 864.2 | –
373.1 K, w2 = 0.7 | 874 | –
373.1 K, w2 = 0.8 | 883.9 | –
373.1 K, w2 = 0.8999 | 894.4 | –
